Experimental data published in patent publication US6362233B1, “Methoxy capped alkoxylated glycerin compounds” (Phoenix Research Corporation, priority 2001, dated 2002).

Assay: Hydrolysis stability test: 10% test material in solution adjusted to pH 5 with lactic acid, placed at 50 C. for 5 days
Format: physicochemical
Conditions: pH adjusted to 5 with lactic acid
Excerpt: The compounds of the present invention are stable to hydrolysis and provide emollient properties to skin. Typical of the stability of the compounds of the present invention compared to acetate salts is as follows:
pH adjusted to 5 with lactic acid.
10% test material added to get solution.
Placed at 50 C. for 5 days.

Substance | Result (stability to hydrolysis)
Glycereth-7-acetate | Acetic smell, hydrolyzed
Glycereth-7-Methoxy capped | Stable clear liquid
